According to patent publication US8258114B2, “Modulation of glucose-6-phosphatase translocase expression” (Isis Pharmaceuticals, Inc., priority 2004, dated 2012):
Oligonucleotides are written 5' to 3', each unit as a sugar letter and its base; * is a phosphorothioate linkage, no mark a phosphodiester; rarer units and linkages stand in square brackets, end groups in braces. Plain capitals give the bases only. e = 2'-O-(2-methoxyethyl) (MOE); [5mC] = 5-methylcytosine; d = 2'-deoxy (DNA)

The sequences below were run on mouse glucose-6-phosphatase translocase mRNA (assay: Antisense inhibition of mouse glucose-6-phosphatase translocase mRNA in primary mouse hepatocytes, 50 nM (Table 5)). Settings: 50 nM oligonucleotide, mRNA by real-time PCR, normalized with RIBOGREEN.
Assay type: cell-based
Description: Primary mouse hepatocytes were prepared from CD-1 mice purchased from Charles River Labs. Primary mouse hepatocytes were routinely cultured in Hepatocyte Attachment Media supplemented with 10% fetal bovine serum (Invitrogen Life Technologies, Carlsbad, Calif.), 250 nM dexamethasone, and 10 nM bovine insulin (Sigma-Aldrich, St. Louis, Mo.). Cells were seeded into 96-well plates (Falcon-Primaria #353872, BD Biosciences, Bedford, Mass.) at a density of approximately 4,000-6,000 cells/well for use in oligomeric compound transfection experiments.
Quantitation of glucose 6-phosphatase translocase mRNA levels was accomplished by real-time quantitative PCR using the ABI PRISM™ 7600, 7700, or 7900 Sequence Detection System (PE-Applied Biosystems, Foster City, Calif.) according to manufacturer's instructions.
Prior to quantitative PCR analysis, primer-probe sets specific to the target gene being measured were evaluated for their ability to be “multiplexed” with a GAPDH amplification reaction. After isolation the RNA is subjected to sequential reverse transcriptase (RT) reaction and real-time PCR, both of which are performed in the same well. RT and PCR reagents were obtained from Invitrogen Life Technologies (Carlsbad, Calif.). […] The RT reaction was carried out by incubation for 30 minutes at 48° C. Following a 10 minute incubation at 95° C. to activate the PLATINUM® Taq, 40 cycles of a two-step PCR protocol were carried out: 95° C. for 15 seconds (denaturation) followed by 60° C. for 1.5 minutes (annealing/extension).
Gene target quantities obtained by RT, real-time PCR were normalized using either the expression level of GAPDH, a gene whose expression is constant, or by quantifying total RNA using RiboGreen™ (Molecular Probes, Inc. Eugene, Oreg.). GAPDH expression was quantified by RT, real-time PCR, by being run simultaneously with the target, multiplexing, or separately. Total RNA was quantified using RiboGreen™ RNA quantification reagent (Molecular Probes, Inc. Eugene, Oreg.).
A series of oligomeric compounds was designed to target different regions of mouse glucose-6-phosphatase translocase, using published sequences cited in Table 1. All compounds in Table 5 are chimeric oligonucleotides (“gapmers”) 20 nucleotides in length, composed of a central “gap” region consisting of 10 2′-deoxynucleotides, which is flanked on both sides (5′ and 3′) by five-nucleotide “wings”. The wings are composed of 2′-O-(2-methoxyethyl) nucleotides, also known as 2′-MOE nucleotides. The internucleoside (backbone) linkages are phosphorothioate throughout the oligonucleotide. All cytidine residues are 5-methylcytidines. The compounds were analyzed for their effect on gene target mRNA levels by quantitative real-time PCR as described in other examples herein, using the following primer-probe set designed to hybridize to mouse glucose-6-phosphatase translocase: • forward primer: […] (SEQ ID NO: 66) • reverse primer: CCATCCCAGCCATCATGAG (SEQ ID NO: 67) and the PCR probe was: FAM-[…]-TAMRA (SEQ ID NO: 68) where FAM is the fluorescent reporter dye and TAMRA is the quencher dye. Mouse target gene quantities were normalized by quantifying total RNA using RIBOGREEN™.
Data are from experiments in which primary mouse hepatocytes were treated with 50 nM of the antisense oligonucleotides of the present invention. A reduction in expression is expressed as percent inhibition in Table 5. If present, “N.D.” indicates “not determined”. The target regions to which these oligomeric compounds are inhibitory are herein referred to as “validated target segments.”

| Sequence | % Inhib [%] |
| --- | --- |
| CGCCATGGCCCTGTCTGACA (e[5mC]*eG*e[5mC]*e[5mC]*eA*dT*dG*dG*d[5mC]*d[5mC]*d[5mC]*dT*dG*dT*d[5mC]*eT*eG*eA*e[5mC]*eA; antisense) [ISIS 148969] | 24 |
| CGTCATCATTTTAAATAGAG (e[5mC]*eG*eT*e[5mC]*eA*dT*d[5mC]*dA*dT*dT*dT*dT*dA*dA*dA*eT*eA*eG*eA*eG; antisense) [ISIS 148994] | 10 |
| CTGATGGCGTAGGCTGCCGA (e[5mC]*eT*eG*eA*eT*dG*dG*d[5mC]*dG*dT*dA*dG*dG*d[5mC]*dT*eG*e[5mC]*e[5mC]*eG*eA; antisense) [ISIS 148950] | 0 |
| CTGCTGGCCCACTCCAGTAC (e[5mC]*eT*eG*e[5mC]*eT*dG*dG*d[5mC]*d[5mC]*d[5mC]*dA*d[5mC]*dT*d[5mC]*d[5mC]*eA*eG*eT*eA*e[5mC]; antisense) [ISIS 148940] | 61 |
| CTTGTCCAGAGCGATCTCAT (e[5mC]*eT*eT*eG*eT*d[5mC]*d[5mC]*dA*dG*dA*dG*d[5mC]*dG*dA*dT*e[5mC]*eT*e[5mC]*eA*eT; antisense) [ISIS 148945] | 35 |
| CTTTCCGTGTCCTGCCAGTA (e[5mC]*eT*eT*eT*e[5mC]*d[5mC]*dG*dT*dG*dT*d[5mC]*d[5mC]*dT*dG*d[5mC]*e[5mC]*eA*eG*eT*eA; antisense) [ISIS 148987] | 45 |
| GAAGGGTATAGGAGACACCC (eG*eA*eA*eG*eG*dG*dT*dA*dT*dA*dG*dG*dA*dG*dA*e[5mC]*eA*e[5mC]*e[5mC]*e[5mC]; antisense) [ISIS 148997] | 57 |
| GACTGCTCCTGCTTGCAGCT (eG*eA*e[5mC]*eT*eG*d[5mC]*dT*d[5mC]*d[5mC]*dT*dG*d[5mC]*dT*dT*dG*e[5mC]*eA*eG*e[5mC]*eT; antisense) [ISIS 148938] | 50 |
| GAGCCCCAAATCGTCCTTGT (eG*eA*eG*e[5mC]*e[5mC]*d[5mC]*d[5mC]*dA*dA*dA*dT*d[5mC]*dG*dT*d[5mC]*e[5mC]*eT*eT*eG*eT; antisense) [ISIS 148947] | 37 |
| GAGCTACCCACAAGGGCGGA (eG*eA*eG*e[5mC]*eT*dA*d[5mC]*d[5mC]*d[5mC]*dA*d[5mC]*dA*dA*dG*dG*eG*e[5mC]*eG*eG*eA; antisense) [ISIS 148965] | 16 |
| GAGGTTCCACACAAGTTGGG (eG*eA*eG*eG*eT*dT*d[5mC]*d[5mC]*dA*d[5mC]*dA*d[5mC]*dA*dA*dG*eT*eT*eG*eG*eG; antisense) [ISIS 148978] | 34 |
| GCAGCCGCTCTCCTTTCCGT (eG*e[5mC]*eA*eG*e[5mC]*d[5mC]*dG*d[5mC]*dT*d[5mC]*dT*d[5mC]*d[5mC]*dT*dT*eT*e[5mC]*e[5mC]*eG*eT; antisense) [ISIS 148988] | 73 |
| GCCAGTGTGCTGCGCCAGCT (eG*e[5mC]*e[5mC]*eA*eG*dT*dG*dT*dG*d[5mC]*dT*dG*d[5mC]*dG*d[5mC]*e[5mC]*eA*eG*e[5mC]*eT; antisense) [ISIS 148957] | 57 |
| GCCCCAGTCTGTACAGCAAG (eG*e[5mC]*e[5mC]*e[5mC]*e[5mC]*dA*dG*dT*d[5mC]*dT*dG*dT*dA*d[5mC]*dA*eG*e[5mC]*eA*eA*eG; antisense) [ISIS 148963] | 55 |
| GCCGCAAATATGACAGTGCG (eG*e[5mC]*e[5mC]*eG*e[5mC]*dA*dA*dA*dT*dA*dT*dG*dA*d[5mC]*dA*eG*eT*eG*e[5mC]*eG; antisense) [ISIS 148942] | 17 |
| GCTCACAAACTTGCTGATGG (eG*e[5mC]*eT*e[5mC]*eA*d[5mC]*dA*dA*dA*d[5mC]*dT*dT*dG*d[5mC]*dT*eG*eA*eT*eG*eG; antisense) [ISIS 148951] | 57 |
| GCTGAAGGGTAAGCCAGCCA (eG*e[5mC]*eT*eG*eA*dA*dG*dG*dG*dT*dA*dA*dG*d[5mC]*d[5mC]*eA*eG*e[5mC]*e[5mC]*eA; antisense) [ISIS 148980] | 43 |
| GCTTTATTCGATCTATACAA (eG*e[5mC]*eT*eT*eT*dA*dT*dT*d[5mC]*dG*dA*dT*d[5mC]*dT*dA*eT*eA*e[5mC]*eA*eA; antisense) [ISIS 149009] | 5 |

| Sequence | % Inhib [%] |
| --- | --- |
| GGATATTTCGAAGCAAGAAG (eG*eG*eA*eT*eA*dT*dT*dT*d[5mC]*dG*dA*dA*dG*d[5mC]*dA*eA*eG*eA*eA*eG; antisense) [ISIS 148983] | 43 |
| GGCACTGATGTAGGAGCTAC (eG*eG*e[5mC]*eA*e[5mC]*dT*dG*dA*dT*dG*dT*dA*dG*dG*dA*eG*e[5mC]*eT*eA*e[5mC]; antisense) [ISIS 148966] | 54 |
| GGCAGAAACCACAGGCCATT (eG*eG*e[5mC]*eA*eG*dA*dA*dA*d[5mC]*d[5mC]*dA*d[5mC]*dA*dG*dG*e[5mC]*e[5mC]*eA*eT*eT; antisense) [ISIS 149000] | 56 |
| GGCTGCTTGTGATGAGCCCC (eG*eG*e[5mC]*eT*eG*d[5mC]*dT*dT*dG*dT*dG*dA*dT*dG*dA*eG*e[5mC]*e[5mC]*e[5mC]*e[5mC]; antisense) [ISIS 148949] | 52 |
| GGGACCTCATTAGCCACTGG (eG*eG*eG*eA*e[5mC]*d[5mC]*dT*d[5mC]*dA*dT*dT*dA*dG*d[5mC]*d[5mC]*eA*e[5mC]*eT*eG*eG; antisense) [ISIS 148993] | 55 |
| GGGACTGAGGTATTGGCATC (eG*eG*eG*eA*e[5mC]*dT*dG*dA*dG*dG*dT*dA*dT*dT*dG*eG*e[5mC]*eA*eT*e[5mC]; antisense) [ISIS 149003] | 9 |
| GGGTACGGCAGAAACCACAG (eG*eG*eG*eT*eA*d[5mC]*dG*dG*d[5mC]*dA*dG*dA*dA*dA*d[5mC]*e[5mC]*eA*e[5mC]*eA*eG; antisense) [ISIS 149001] | 42 |
| GTGATGAGCCCCAAATCGTC (eG*eT*eG*eA*eT*dG*dA*dG*d[5mC]*d[5mC]*d[5mC]*d[5mC]*dA*dA*dA*eT*e[5mC]*eG*eT*e[5mC]; antisense) [ISIS 148948] | 52 |
| GTGGAGACACAGAAACGTAA (eG*eT*eG*eG*eA*dG*dA*d[5mC]*dA*d[5mC]*dA*dG*dA*dA*dA*e[5mC]*eG*eT*eA*eA; antisense) [ISIS 148992] | 51 |
| TACAGCAAGTCTTTACTCCG (eT*eA*e[5mC]*eA*eG*d[5mC]*dA*dA*dG*dT*d[5mC]*dT*dT*dT*dA*e[5mC]*eT*e[5mC]*e[5mC]*eG; antisense) [ISIS 148962] | 47 |
| TACTCGGAAGAGATACGTGG (eT*eA*e[5mC]*eT*e[5mC]*dG*dG*dA*dA*dG*dA*dG*dA*dT*dA*e[5mC]*eG*eT*eG*eG; antisense) [ISIS 148974] | 8 |
| TATAGGAGACACCCTGAATT (eT*eA*eT*eA*eG*dG*dA*dG*dA*d[5mC]*dA*d[5mC]*d[5mC]*d[5mC]*dT*eG*eA*eA*eT*eT; antisense) [ISIS 148996] | −3 |
| TATTGGCATCAATTTTGCCC (eT*eA*eT*eT*eG*dG*d[5mC]*dA*dT*d[5mC]*dA*dA*dT*dT*dT*eT*eG*e[5mC]*e[5mC]*e[5mC]; antisense) [ISIS 149002] | 22 |
| TCACTCTCCCTTCTTGGATA (eT*e[5mC]*eA*e[5mC]*eT*d[5mC]*dT*d[5mC]*d[5mC]*d[5mC]*dT*dT*d[5mC]*dT*dT*eG*eG*eA*eT*eA; antisense) [ISIS 148984] | 60 |
| TCATGAGAGTGGTGGACTCC (eT*e[5mC]*eA*eT*eG*dA*dG*dA*dG*dT*dG*dG*dT*dG*dG*eA*e[5mC]*eT*e[5mC]*e[5mC]; antisense) [ISIS 149005] | 27 |
| TCATGCTGGTTGACAACACA (eT*e[5mC]*eA*eT*eG*d[5mC]*dT*dG*dG*dT*dT*dG*dA*d[5mC]*dA*eA*e[5mC]*eA*e[5mC]*eA; antisense) [ISIS 148955] | 36 |
| TCCTCTCCTCCCTTAGGGAC (eT*e[5mC]*e[5mC]*eT*e[5mC]*dT*d[5mC]*d[5mC]*dT*d[5mC]*d[5mC]*d[5mC]*dT*dT*dA*eG*eG*eG*eA*e[5mC]; antisense) [ISIS 149004] | 42 |
